Measured values from patent publication US5223519A, “4-hydroxypyridine derivatives, useful for treating circulatory diseases” (Mercian Corporation, priority 1990, dated 1993).
Where two headings read alike, the source gives them in different places.

Tests used:
[1] = test system: norepinephrine- or KCl-contracted rat thoracic aorta; test: Vasodilating activity: relaxation of contracted thoracic aorta helical strips; set-up: species or system Male Sprague-Dawley rats; conditions: for IC50: cumulative application, pH 7.4, 37° C.; for relaxation of the aorta compared with papaverine: vs papaverine, norepinephrine or KCl contraction
Protocol: Male Sprague-Dawley rats weighing 250-300 g were sacrificed by cervical dislocation and exsanguinated. The thoracic aorta was dissected out and helical strips, 2 mm wide and 10 mm long, were prepared. Each preparation was mounted in a 10 ml organ bath containing physiological saline solution (Krebs-Henzeleit solution, pH 7.4). The solution was gassed with 95% O2 - 5% CO2 at 37° C. and a resting tension of 0.5 g was applied. Tissues were allowed to equilibrate for at least 60 minutes before the application of test substances. The developed tension was measured isometrically with a force-displacement transducer and recorded on pen-recorder. Tissues had been contracted with 10^-7 M norepinephrine or isotonic 60 mM KCl and test substances were applied cumulatively.

[2] = test system: blood pressure; test: Depressor effect in anesthetized spontaneously hypertensive rats (i.v.); format: in vivo, Male spontaneously hypertensive rats (SHR rats); set-up: Vasodepression / Duration time: unit not given here; conditions: for Duration time / Vasodepression: injected into femoral vein
Protocol: Male spontaneously hypertensive rats (SHR rats), 25-31 weeks old, were anesthetized with 40 mg/kg of pentobarbital sodium injected intraperitoneally. For the measurement of blood pressure, a cannula was inserted into the left carotid artery and connected to a multipurpose polygraph through a pressure transducer. Each animal was allowed to equilibrate for at least 30 minutes before injection and test substances were injected into the femoral vein through a polyethylene tube.

[3] = Solubility
[4] = test system: ICR male mice; test: Acute toxicity in mice (i.v.); format: in vivo; conditions: five mice per dose
Protocol: The acute toxicity of Mer-A2026A was determined in ICR male mice. Five mice were used at each dose.

[5] = 10^-7 M norepinephrine contraction, read-out: IC50 Norepinephrine (concentration needed to induce a 50% decrease in norepinephrine-induced contraction)
[6] = isotonic 60 mM KCl contraction, read-out: IC50 Isotonic KCl (concentration needed to induce a 50% decrease in KCl-induced contraction)

Q: Which results are given for `COc1ccc(Cc2nccc3cc(OC)c(OC)cc23)cc1OC` [Papaverine, reference compound]?
A: IC50 [1, 5]: 4700 nM; IC50 [1, 6]: 17000 nM; Duration time ([2]; 1000 μg/kg): 2.2; Vasodepression ([2]; 1000 μg/kg): 52.0

Q: Which results are given for `C/C=C(\C)C(O)C(C)/C=C(C)/C=C/C/C(C)=C/Cc1nc(OC)cc(O)c1C` (centres unmarked) [Mer-A2026B]?
A: IC50 [1, 5]: 770 nM; IC50 [1, 6]: 400 nM; relaxation of the aorta compared with papaverine [1]: more greatly relaxed the aorta than papaverine; solubility in commonly available organic solvents [3]: soluble; solubility in water [3]: insoluble

Q: Which results are given for `COc1cc(O)c(C)c(C/C=C(\C)C/C=C/C(C)=C/C(C)C(O)/C(C)=C/C(C)C)n1` (centres unmarked) [Mer-A2026A]?
A: IC50 [1, 5]: 200 nM; IC50 [1, 6]: 1000 nM; relaxation of the aorta compared with papaverine [1]: more greatly relaxed the aorta than papaverine; acute toxicity (survival) ([4]; 250 μg/Kg intravenous): all survived; acute toxicity (deaths) ([4]; 500 μg/Kg intravenous): sacrificed the one mouse; solubility in commonly available organic solvents [3]: soluble; solubility in water [3]: insoluble; Duration time ([2]; 10 μg/kg): 0.2; Vasodepression ([2]; 10 μg/kg): 3.6; Duration time ([2]; 30 μg/kg): 9.4; Vasodepression ([2]; 30 μg/kg): 25.0; Duration time ([2]; 100 μg/kg): 24.5; Vasodepression ([2]; 100 μg/kg): 47.7; depressor effect (in words) ([2]; SHR rats, i.v., refers to Table 3): markedly prolonged the duration time and decreased the blood pressure
